Literature values, collected in paper PMC9686322 (Frontiers in Neurology, 2022).

How the values were obtained:
[1] = design: method as in PMID 15956161, PMID 10626097, PMID 21080186
[2] = design: method as in PMID 29847694

Plasma half-life [2]: 1.5 to 2.5 h
SMILES: N[C@@H](Cc1ccc(O)c(O)c1)C(=O)O [levodopa]
Threshold plasma concentration to achieve sustained relief of PD symptoms [1]: about 1,000 ng/ml
